Laboratory results taken from patent US9861624B2, “Method of treating cancer” (Exelixis, Inc., priority 2012, dated 2018).

Legend:
[1] = tested on: CRPC patients with evidence of bone metastases; test: Adaptive phase 2 trial (NCT00940225), case studies of the first three CRPC patients with bone metastases; format: in vivo, human; details: for PSA / serum tALP levels: Week 18
Description: In 2000, local disease recurrence was treated with radiation therapy. […] CAB with leuprolide and bicalutamide was initiated. […] All patients provided informed consent before study screening.

[2] = tested on: murine pancreatic neuroendocrine tumor model; test: Murine pancreatic neuroendocrine tumor model; details: mouse, in vivo
xenograft tumor models = test: Xenograft tumor models; details: in vivo

Which results are given for COc1cc2nccc(Oc3ccc(NC(=O)C4(C(=O)Nc5ccc(F)cc5)CC4)cc3)c2cc1OC [Compound 1, N-(4-{[6,7-bis(methyloxy)quinolin-4-yl]oxy}phenyl)-N′-(4-fluorophenyl)cyclopropane-1,1-dicarboxamide]?
increase in hemoglobin ([1]; Patient 1, Week 2 compared with baseline): 1.4 g/dL; radiotracer uptake by bone metastases on bone scan ([1]; Patient 1, Week 6): dramatic decrease; bone lesions ([1]; Patient 1, Week 12): near complete resolution; PSA ([1]; Patient 1, 430 ng/mL at baseline): 93.5 ng/mL; serum tALP levels ([1]; Patient 1, 689 U/L at baseline): 159 U/L; bone pain ([1]; Patient 1, four weeks after start): significant reduction; bone pain ([1]; Patient 2, Week 4): reduction; radiotracer uptake by bone lesions on bone scan ([1]; Patient 2, Week 6): slight flair; radiotracer uptake ([1]; Patient 2, Week 12): substantial reduction; hemoglobin increase ([1]; Patient 2, Week 12 compared with baseline): 1.8 g/dL; PSA peak ([1]; Patient 2, Week 16, after placebo Week 12 to 15, crossed over to Compound 1 at Week 15): ~6 fold of baseline; PSA ([1]; Patient 2, subsequent to crossing over to Compound 1 from placebo): 2 fold of baseline; hemoglobin increase ([1]; Patient 3, Week 2 compared with baseline): 2.2 g/dL; radiotracer uptake on bone scan ([1]; Patient 3, Week 6): dramatic reduction; bone lesions on bone scan ([1]; Patient 3, Week 12): complete resolution; PSA ([1]; Patient 3, 2.4 ng/mL at screening): 1.2 ng/mL; serum tALP levels ([1]; Patient 3, 869 U/L at baseline): 197 U/L; pain ([1]; Patient 3, after three weeks): complete resolution; uptake of radiotracer on bone scan ([1]; all three patients, summary): striking decrease; bone lesions ([1]; three metastatic CRPC patients, summary): near complete resolution; overall survival [2]: substantially improves; tumor invasiveness and metastasis [2]: significantly reduces; effect on tumors in xenograft tumor models (xenograft tumor models): tumor regression
